Data as given in PubChem BioAssay (NCI).
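1) Cells in 96-well plates. 2) Compound, 48 h, 5 concentrations. 3) Linear interpolation between surrounding doses. 4) Unreached endpoint = highest concentration. GI50 is the concentration that inhibits growth by half. Definition used: TGI = concentration required for complete inhibition of growth.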

Tests used:
Assay in all cases: growth of human tumour cells (NCI), 48 h
HOP-92 NSCLC = test system: HOP-92 NSCLC
RXF 393 renal = test system: RXF 393 renal
SK-MEL-5 melanoma = test system: SK-MEL-5 melanoma
CCRF-CEM leukemia = test system: CCRF-CEM leukemia
NCI-H460 lung = test system: NCI-H460 lung
SF-295 CNS = test system: SF-295 CNS
UACC-257 melanoma = test system: UACC-257 melanoma
SF-268 CNS = test system: SF-268 CNS
NCI-H23 lung = test system: NCI-H23 lung
A498 renal = test system: A498 renal

SMILES | TGI (HOP-92 NSCLC) [µM] | TGI (RXF 393 renal) [µM] | TGI (SK-MEL-5 melanoma) [µM] | TGI (CCRF-CEM leukemia) [µM] | TGI (NCI-H460 lung) [µM] | TGI (SF-295 CNS) [µM] | TGI (UACC-257 melanoma) [µM] | TGI (SF-268 CNS) [µM] | TGI (NCI-H23 lung) [µM] | TGI (A498 renal) [µM] | GI50 (HOP-92 NSCLC) [µM] | GI50 (SF-268 CNS) [µM] | GI50 (NCI-H23 lung) [µM] | GI50 (RXF 393 renal) [µM] | GI50 (SK-MEL-5 melanoma) [µM] | GI50 (CCRF-CEM leukemia) [µM] | GI50 (A498 renal) [µM] | GI50 (NCI-H460 lung) [µM] | GI50 (SF-295 CNS) [µM] | GI50 (UACC-257 melanoma) [µM]
N#Cc1c(-c2ccc(Cl)c(Cl)c2)c(-c2ccc(Cl)c(Cl)c2)nn(CC(=O)O)c1=O | > 100 | 53.9 | > 100 | > 100 | > 100 | > 100 | > 100 |  |  |  |  |  |  |  |  |  |  |  |  | 
O=C1C2Nc3ccccc3SC2C(=O)N1c1ccc(Br)cc1 (stereo not given) | 33.2 | 61.8 | 55.3 |  | > 100 | > 100 | > 100 | > 100 | > 100 | 82.5 |  |  |  |  |  |  |  |  |  | 
c1ccc([P+](CCSCCSCC[P+](c2ccccc2)(c2ccccc2)c2ccccc2)(c2ccccc2)c2ccccc2)cc1 | > 100 | > 100 | > 100 |  | > 100 | > 100 | > 100 | > 100 | > 100 | > 100 |  |  |  |  |  |  |  |  |  | 
COc1ccc(C/C(=N/O)C(=O)NCCc2cc(Br)c(OCCCN(C)C)c(Br)c2)cc1Br |  | 38.5 |  |  | 33.4 | 34.7 | 30.6 | 39.4 |  |  |  |  |  |  |  |  |  |  |  | 
Cc1ccc(S(=O)(=O)OCCn2cnc3nc(NC(=O)c4ccccc4)[nH]c(=O)c32)cc1 | > 100 | > 100 | > 100 | > 100 | > 100 | > 100 | > 100 | > 100 |  | > 100 |  |  |  |  |  |  |  |  |  | 
COC(=O)CC(NC(=O)OCc1ccccc1)C(C(C)=O)C(=O)OCc1ccccc1 (stereo not given) | > 31.6 |  | > 31.6 | > 31.6 | > 31.6 | > 100 | > 31.6 | > 31.6 | > 31.6 | > 31.6 |  |  |  |  |  |  |  |  |  | 
CCCCCN(CCCCC)C(=O)[C@@H](CCC(=O)O)NC(=O)c1cc2ccccc2[nH]1 | 67.8 | 25.6 |  | 61 | > 100 | > 100 | > 100 | 82.9 | 58 | > 100 |  |  |  |  |  |  |  |  |  | 
O=C(Nc1ccc2[nH]nc(-c3ccncc3)c2c1)[C@@H]1CCN(CC(=O)N2CCN(c3ccc(-c4ncccn4)cc3)CC2)C1 | 1.81 | > 100 | > 100 | > 100 | > 100 | > 100 |  | > 100 | > 100 | 0.533 | 0.105 | > 69.7 | 0.0991 | 2.84 | 0.607 | 5.49 | 0.0778 | > 100 | > 100 | 
COc1ccc(C(c2cc(OC)c(OC)c(OC)c2)n2ccnc2)cc1O (stereo not given) | > 100 |  | 3.18 | > 100 | > 100 |  | > 100 | > 100 | > 100 | 0.941 | 28.6 | 0.731 | 0.882 |  | 0.367 | 0.289 | 0.304 | 0.377 |  | 1.44
CCN1C/C(=C\c2cc(OC)c(OC)cc2OC)C(=O)/C(=C/c2cc(OC)c(OC)cc2OC)C1 | 17.8 | 7.38 | 3.53 | > 100 |  | 4.89 | 28 |  | 15.4 | 7.81 | 2.46 |  | 3.43 | 2.32 | 1.59 | 2.96 | 2.56 |  | 2.3 | 4.32
CCN(CCCN(C)C)Cc1cc(I)cc(C)c1O | 52.3 | 51.1 | 31.5 |  | 38 | 31.9 | 32.5 | 45.7 | > 100 | 38.6 | 10.8 | 18.7 | 97.2 | 17.1 | 17.6 |  | 20.4 | 16.4 | 15.9 | 16.3
Cn1cc(C(=O)c2ccccc2)c2ccccc2c1=O | > 100 | > 100 | > 100 | > 100 | > 100 | > 100 | > 100 | > 100 |  |  |  |  |  |  |  |  |  |  |  | 
CN(C)C=Nc1ccn(CCO)c(=O)n1 |  | > 100 | > 100 | > 100 | > 100 |  | > 100 | > 100 | > 100 | > 100 |  |  |  |  |  |  |  |  |  | 
O=C(Oc1cccc2cccnc12)c1cc2c(cc1Cl)SC(N(c1ccc(F)cc1)S(=O)(=O)c1ccc(Br)s1)=NS2(=O)=O | 48.5 |  | 39.8 | > 100 | > 100 | 69.7 |  | > 100 | 59 | > 100 | 22.5 | 35.7 | 21.2 |  | 18.2 | 30.5 | 34.9 | 29.1 | 22.4 | 
O=C1NC(Cc2ccc(O)cc2)C(=O)N2CCCC12 (stereo not given) | > 100 | > 100 | > 100 | > 100 | > 100 | > 100 | > 100 | > 100 |  | > 100 |  |  |  |  |  |  |  |  |  | 
CC(=O)OCC1OC(n2cc(F)c(=O)[nH]c2=O)C(NC(=O)N(CCCl)N=O)C(OC(C)=O)C1OC(C)=O (stereo not given) | > 100 |  | > 100 | > 100 | > 100 | > 100 | > 100 | > 100 | > 100 | > 100 |  |  |  |  |  |  |  |  |  | 
O=c1[nH]c2ccccc2c2ccccc12 | > 100 | > 100 | > 100 | > 100 | > 100 | > 100 |  | > 100 | > 100 | > 100 | 39.8 | > 100 | > 100 | > 100 | 91.5 | > 100 | 44.7 | 70.1 | > 100 | 
COC(=O)CCC(NC(=S)N/N=C(\C)c1cnc2ccccc2n1)C(=O)OC (stereo not given) |  | 86 | 80.7 | 15.7 | > 100 | > 100 | > 100 | > 100 | > 100 | > 100 |  |  |  |  |  |  |  |  |  | 
O=C1CSCc2sccc21 |  | > 100 | > 100 | > 100 | > 100 | > 100 | > 100 | > 100 | > 100 | > 100 |  |  |  |  |  |  |  |  |  | 
Nc1ncnc2c1ncn2[C@]1(CO)C=C(CO)C(O)C1O (stereo not given in full) | > 100 | > 100 | > 100 |  | > 100 | > 100 | > 100 | > 100 | > 100 | > 100 |  |  |  |  |  |  |  |  |  | 
